From article PMC7932537, “Quantitative profiling of protease specificity” (PLoS Computational Biology, 2021)

Key:
MMP-9 = MMP-9 (Homo sapiens, UniProt P14780); experiment: K(obs) of individual phage substrates (set of 1369); format: biochemical; details: MMP9, individual phage substrates, set of 1369 peptides
MMP-2 = target: T1, MMP-2 (Homo sapiens, UniProt P08253); experiment: as above; format: biochemical; details: MMP2
T1 sequence (P08253 110-660): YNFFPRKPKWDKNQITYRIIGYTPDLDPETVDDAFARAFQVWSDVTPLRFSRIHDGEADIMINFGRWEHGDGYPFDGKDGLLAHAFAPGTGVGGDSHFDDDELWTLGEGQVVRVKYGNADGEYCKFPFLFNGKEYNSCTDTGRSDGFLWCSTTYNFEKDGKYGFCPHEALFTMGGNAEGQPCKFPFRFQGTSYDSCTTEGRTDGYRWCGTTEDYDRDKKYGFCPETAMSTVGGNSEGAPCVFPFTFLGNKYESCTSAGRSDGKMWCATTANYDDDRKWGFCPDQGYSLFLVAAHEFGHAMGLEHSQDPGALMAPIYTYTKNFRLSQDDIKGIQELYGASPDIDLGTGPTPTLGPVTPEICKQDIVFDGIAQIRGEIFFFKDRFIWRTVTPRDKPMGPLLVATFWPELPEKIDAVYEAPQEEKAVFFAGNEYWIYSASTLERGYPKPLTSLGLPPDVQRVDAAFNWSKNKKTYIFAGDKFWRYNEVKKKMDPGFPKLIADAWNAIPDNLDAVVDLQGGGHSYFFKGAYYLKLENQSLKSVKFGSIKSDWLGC

[1] = dash in sequence marks cleavage position
[2] = individual phage substrate from the set of 1369 peptides, cleavage position marked by the dash in the sequence
[3] = '-' marks the cleavage position (P1-P1')
[4] = individual phage substrates, set of 1369 peptides, cleavage position marked by '-' in the sequence

Sequence of MMP-9 (P14780 94-707): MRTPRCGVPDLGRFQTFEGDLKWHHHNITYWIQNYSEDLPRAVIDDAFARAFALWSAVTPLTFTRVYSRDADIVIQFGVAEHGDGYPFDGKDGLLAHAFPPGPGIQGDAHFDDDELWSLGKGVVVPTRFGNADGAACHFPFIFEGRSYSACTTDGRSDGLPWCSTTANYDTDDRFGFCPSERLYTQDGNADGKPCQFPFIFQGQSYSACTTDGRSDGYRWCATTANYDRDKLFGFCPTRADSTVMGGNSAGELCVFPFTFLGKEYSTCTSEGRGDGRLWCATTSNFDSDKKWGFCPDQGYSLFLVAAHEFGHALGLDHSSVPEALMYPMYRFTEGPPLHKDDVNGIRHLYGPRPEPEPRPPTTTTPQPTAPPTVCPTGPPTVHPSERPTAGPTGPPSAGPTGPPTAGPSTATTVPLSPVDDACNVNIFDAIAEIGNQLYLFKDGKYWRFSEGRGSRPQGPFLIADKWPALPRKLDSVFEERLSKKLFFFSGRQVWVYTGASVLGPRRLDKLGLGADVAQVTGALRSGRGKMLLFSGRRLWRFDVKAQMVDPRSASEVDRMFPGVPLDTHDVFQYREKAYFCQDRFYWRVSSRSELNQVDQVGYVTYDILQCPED

Row | Substance | Kobs (MMP-9; [1]) | Kobs (MMP-2; [2]) | Kobs (MMP-9; [3]) | Kobs (MMP-2; [4])
1 | SLPAH-ITASG | 5461.43 M⁻¹ s⁻¹ | 12792.1 M⁻¹ s⁻¹ |  | 
2 | WHFGA-LTASG |  |  | 0 M⁻¹ s⁻¹ | 12792.1 M⁻¹ s⁻¹
3 | GGSGE-LRLSN |  |  | 0 M⁻¹ s⁻¹ | 56.119 M⁻¹ s⁻¹
4 | RSPLM-MTASG |  |  | 12792.1 M⁻¹ s⁻¹ | 4922.1 M⁻¹ s⁻¹
5 | ERPGW-LTASG |  |  | 3438.54 M⁻¹ s⁻¹ | 7386.83 M⁻¹ s⁻¹
6 | RYPVN-MTASG |  |  | 5090.5 M⁻¹ s⁻¹ | 6688.74 M⁻¹ s⁻¹
7 | VKAQH-LTASG | 2476.66 M⁻¹ s⁻¹ | 7815.03 M⁻¹ s⁻¹ |  | 
8 | GQPAH-LSTAS | 2761.81 M⁻¹ s⁻¹ | 10866.7 M⁻¹ s⁻¹ |  | 
9 | EVSQH-LTASG |  |  | 551.253 M⁻¹ s⁻¹ | 690.17 M⁻¹ s⁻¹
10 | NRPSA-LTASG |  |  | 12792.1 M⁻¹ s⁻¹ | 12792.1 M⁻¹ s⁻¹
11 | GNADL-IMTAS | 0 M⁻¹ s⁻¹ | 0 M⁻¹ s⁻¹ |  | 
12 | PTLWR-ITASG | 0 M⁻¹ s⁻¹ | 386.839 M⁻¹ s⁻¹ |  | 
13 | GVPQW-IHTAS |  |  | 5889.62 M⁻¹ s⁻¹ | 4335.13 M⁻¹ s⁻¹
14 | RTYSH-LTASG |  |  | 0 M⁻¹ s⁻¹ | 3079.62 M⁻¹ s⁻¹
15 | SGPYN-LRGTA |  |  | 12792.1 M⁻¹ s⁻¹ | 12792.1 M⁻¹ s⁻¹
16 | SPAHG-LTASG | 1239.69 M⁻¹ s⁻¹ | 10866.7 M⁻¹ s⁻¹ |  | 
17 | SGINM-LTLTA |  |  | 0 M⁻¹ s⁻¹ | 0 M⁻¹ s⁻¹
18 | SGYMH-IKVTA |  |  | 0 M⁻¹ s⁻¹ | 0 M⁻¹ s⁻¹
19 | SGSAR-LTLTA | 0 M⁻¹ s⁻¹ | 0 M⁻¹ s⁻¹ |  | 
20 | IGYAW-MTASG |  |  | 201.585 M⁻¹ s⁻¹ | 5090.5 M⁻¹ s⁻¹
21 | GGSGQ-LFNVG | 762.325 M⁻¹ s⁻¹ | 4470.66 M⁻¹ s⁻¹ |  | 
22 | GSPVW-LRTAS |  |  | 9740.44 M⁻¹ s⁻¹ | 12792.1 M⁻¹ s⁻¹
23 | SKVLF-LTASG |  |  | 3079.62 M⁻¹ s⁻¹ | 3079.62 M⁻¹ s⁻¹
24 | MVPSA-LTASG |  |  | 8941.32 M⁻¹ s⁻¹ | 7015.91 M⁻¹ s⁻¹
25 | LVVAA-LTASG |  |  | 12792.1 M⁻¹ s⁻¹ | 12792.1 M⁻¹ s⁻¹
26 | GRVLH-LRTAS |  |  | 2280.5 M⁻¹ s⁻¹ | 3850.82 M⁻¹ s⁻¹

Row | Substance | Kobs (MMP-9; [1]) | Kobs (MMP-2; [2]) | Kobs (MMP-9; [3]) | Kobs (MMP-2; [4])
27 | GAPAF-LKTAS |  |  | 10866.7 M⁻¹ s⁻¹ | 12792.1 M⁻¹ s⁻¹
28 | VYSAY-LTASG | 142.481 M⁻¹ s⁻¹ | 8941.32 M⁻¹ s⁻¹ |  | 
29 | SGVNS-LRRTA |  |  | 0 M⁻¹ s⁻¹ | 726.013 M⁻¹ s⁻¹
30 | SGPLG-IFYTA |  |  | 12792.1 M⁻¹ s⁻¹ | 12792.1 M⁻¹ s⁻¹
31 | RPAQD-LTASG |  |  | 231.616 M⁻¹ s⁻¹ | 27.918 M⁻¹ s⁻¹
32 | GSGAK-LIVRT |  |  | 0 M⁻¹ s⁻¹ | 0 M⁻¹ s⁻¹
33 | VMHQN-LTASG | 171.876 M⁻¹ s⁻¹ | 8941.32 M⁻¹ s⁻¹ |  | 
34 | GSPLD-LKTAS | 8941.32 M⁻¹ s⁻¹ | 12792.1 M⁻¹ s⁻¹ |  | 
35 | SGPIP-IRKTA |  |  | 12792.1 M⁻¹ s⁻¹ | 12792.1 M⁻¹ s⁻¹
36 | MVPHM-LTASG |  |  | 12792.1 M⁻¹ s⁻¹ | 12792.1 M⁻¹ s⁻¹
37 | PMARY-LTASG |  |  | 3637.04 M⁻¹ s⁻¹ | 12792.1 M⁻¹ s⁻¹
38 | SGAMN-LTLTA |  |  | 0 M⁻¹ s⁻¹ | 0 M⁻¹ s⁻¹
39 | FIARA-LTASG |  |  | 12792.1 M⁻¹ s⁻¹ | 12792.1 M⁻¹ s⁻¹
40 | FRVEP-LTASG | 261.974 M⁻¹ s⁻¹ | 323.705 M⁻¹ s⁻¹ |  | 
41 | VFALN-LTASG |  |  | 12792.1 M⁻¹ s⁻¹ | 12792.1 M⁻¹ s⁻¹
42 | WVANM-ITASG |  |  | 1513.13 M⁻¹ s⁻¹ | 7386.83 M⁻¹ s⁻¹
43 | GTVWA-LTTAS |  |  | 2218.08 M⁻¹ s⁻¹ | 292.668 M⁻¹ s⁻¹
44 | VIVAA-LTASG |  |  | 10866.7 M⁻¹ s⁻¹ | 12792.1 M⁻¹ s⁻¹
45 | SGPVS-LRMTA | 12792.1 M⁻¹ s⁻¹ | 12792.1 M⁻¹ s⁻¹ |  | 
46 | GSGNR-LMRLT |  |  | 0 M⁻¹ s⁻¹ | 0 M⁻¹ s⁻¹
47 | RRTAW-LTASG |  |  | 1373.05 M⁻¹ s⁻¹ | 8321.48 M⁻¹ s⁻¹
48 | GKPLP-WTASG |  |  | 5889.62 M⁻¹ s⁻¹ | 6131.32 M⁻¹ s⁻¹
49 | SGMSS-LKFTA |  |  | 0 M⁻¹ s⁻¹ | 323.705 M⁻¹ s⁻¹
50 | VDHAH-LTASG |  |  | 0 M⁻¹ s⁻¹ | 5269.78 M⁻¹ s⁻¹
51 | RAGFQ-LTASG | 0 M⁻¹ s⁻¹ | 0 M⁻¹ s⁻¹ |  | 
